Patent US4545932A, “Glucosaminyl muramyl peptide derivatives” (Dainippon Pharmaceutical Co., Ltd., priority 1982, dated 1985)

Key:
Type in all cases: in vivo
various microorganisms = experiment: Antiinfectious effect in mice; settings: summary of Table 2; mice
Source text: (§1) Std-ddY male mice weighing about 23 g (each group: 8 mice) were used. Test compounds dissolved in a physiological saline solution were each intravenously administered to mice once a day 1, 2 and 3 days before the infection. Twenty-four hours after the final administration of test compounds, the mice were infected with various microorganisms suspended in saline (in case of Staphylococcus aureus and Candida albicans) or in Trypto-Soy Broth (manufactured by Eiken Chemical Co., Ltd., Japan) (in case of Pseudomonas aeruginosa and Escherichia coli) under the conditions as shown in Table 1. When the experiment was repeated twice or more, the data were pooled.
Besides, as to the compounds of Examples 8, 18, 36, 37 and 45 (derivatives of GMP3 -A), similar experiments were done.

Escherichia coli P-5101 = experiment: Prophylactic effect on experimental infection, Escherichia coli; settings: Std-ddY male mice, 7 days after infection
Source text: as §1
(§2) ^a Test compounds were intravenously administered once a day 1, 2 and
(§3) 3 days before infection.
(§4) ^b Figures represent (number of survivals)/(number of animals tested)
(§5) and figures in parenthesis represent percent survival.

Candida albicans 3170 = experiment: Prophylactic effect on experimental infection, Candida albicans; settings: Std-ddY male mice, 7 days after infection
Source text: as §1
3170 fungal sus- infection
as §2, §3, §4, §5

[1] = system: Pseudomonas aeruginosa No. 12; experiment: Prophylactic effect on experimental infection, Pseudomonas aeruginosa; settings: Std-ddY male mice, 7 days after infection
Source text: as §1, §2, §3, §4, §5

Pyrogenicity in rabbits = settings: for Pyrogenicity in rabbits: injected into ear vein, three rabbits per group
Description: Rabbits (each group: three rabbits) were used. Test compounds dissolved in a physiological saline solution were each injected into ear vein of rabbits. The difference between maximum body temperature within three hours after the injection of test compound and the body temperature before the injection was regarded as rise in body temperature. The degree of pyrogenicity was evaluated according to the following criterion: […]

Acute toxicity in mice = settings: mortality for 14 days
Description: Male and female ICR mice aged about 6 weeks (each group: 8 mice) were used. The compound of Example 15 was dissolved in distilled water and administered to mice. Mortality was checked for 14 days and LD50 was calculated by probit method.

[2] = system: Staphylococcus aureus No. 50774; experiment: Prophylactic effect on experimental infection, Staphylococcus aureus; settings: Std-ddY male mice, 14 days after infection
Source text: as §1, §2, §3, §4, §5

[3] = Dose 0.05 mg/kg i.v. once a day 1, 2 and 3 days before infection
[4] = Dose 0.2 mg/kg i.v. once a day 1, 2 and 3 days before infection
[5] = Dose 0.8 mg/kg i.v. once a day 1, 2 and 3 days before infection
[6] = Dose 3.1 mg/kg i.v. once a day 1, 2 and 3 days before infection
[7] = Dose 12.5 mg/kg i.v. once a day 1, 2 and 3 days before infection
[8] = Dose 50 mg/kg i.v. once a day 1, 2 and 3 days before infection
[9] = Dose 0.0125 mg/kg i.v. once a day 1, 2 and 3 days before infection
[10] = Dose 0.125 mg/kg i.v. once a day 1, 2 and 3 days before infection

CCCCCCCCCCCCCCCCCC(=O)NC(CCCC(NC(=O)CCC(NC(=O)C(C)NC(=O)C(C)OC1C(NC(C)=O)C(O)OC(CO)C1OC1OC(CO)C(O)C(O)C1NC(C)=O)C(N)=O)C(=O)NC(C)C(=O)[O-])C(N)=O.[Na+] [Example 15, sodium β-N-acetylglucosaminyl(1→4)-N-acetylmuramyl-L-alanyl-D-isoglutaminyl-(L)-stearoyl-(D)-meso-2,6-diaminopimelic acid-(D)-amide(L)-D-alanate]
antiinfectious effect compared with GMP4 -A (various microorganisms): more potent antiinfectious effect
(number of survivals)/(number of animals tested) (Escherichia coli P-5101; [3]): 6/16
percent survival (Escherichia coli P-5101; [3]): 37.5%
(number of survivals)/(number of animals tested) (Escherichia coli P-5101; [4]): 7/16
percent survival (Escherichia coli P-5101; [4]): 43.8%
(number of survivals)/(number of animals tested) (Escherichia coli P-5101; [5]): 10/16
percent survival (Escherichia coli P-5101; [5]): 62.5%
(number of survivals)/(number of animals tested) (Escherichia coli P-5101; [6]): 11/16
percent survival (Escherichia coli P-5101; [6]): 68.8%
(number of survivals)/(number of animals tested) (Escherichia coli P-5101; [7]): 11/16
percent survival (Escherichia coli P-5101; [7]): 68.8%
(number of survivals)/(number of animals tested) (Escherichia coli P-5101; [8]): 7/8
percent survival (Escherichia coli P-5101; [8]): 87.5%
(number of survivals)/(number of animals tested) (Candida albicans 3170; [5]): 3/8
percent survival (Candida albicans 3170; [5]): 37.5%
(number of survivals)/(number of animals tested) (Candida albicans 3170; [6]): 4/8
percent survival (Candida albicans 3170; [6]): 50%
(number of survivals)/(number of animals tested) (Candida albicans 3170; [7]): 4/8
percent survival (Candida albicans 3170; [7]): 50%
(number of survivals)/(number of animals tested) (Candida albicans 3170; [8]): 7/8
percent survival (Candida albicans 3170; [8]): 87.5%
(number of survivals)/(number of animals tested) [1, 9]: 12/32
percent survival [1, 9]: 37.5%
(number of survivals)/(number of animals tested) [1, 3]: 14/32
percent survival [1, 3]: 43.8%
(number of survivals)/(number of animals tested) [1, 4]: 15/32
percent survival [1, 4]: 46.9%
(number of survivals)/(number of animals tested) [1, 5]: 14/24
percent survival [1, 5]: 58.3%
(number of survivals)/(number of animals tested) [1, 6]: 14/16
percent survival [1, 6]: 87.5%
(number of survivals)/(number of animals tested) [1, 7]: 8/8
percent survival [1, 7]: 100%
Pyrogenicity in rabbits (Pyrogenicity in rabbits; Dose 0.1 mg/rabbit): - (one animal showed rise in body temperature of 0.6 °C or more)
Pyrogenicity in rabbits (Pyrogenicity in rabbits; Dose 0.3 mg/rabbit): - (one animal showed rise in body temperature of 0.6 °C or more)
Pyrogenicity in rabbits (Pyrogenicity in rabbits; Dose 1 mg/rabbit): - (one animal showed rise in body temperature of 0.6 °C or more)
Pyrogenicity in rabbits (Pyrogenicity in rabbits; Dose 3 mg/rabbit): ± (one animal showed rise in body temperature of 0.6 °C or more)
Pyrogenicity in rabbits (Pyrogenicity in rabbits; Dose 10 mg/rabbit): + (two or more animals showed rise in body temperature of 0.6 °C or more)
pyrogenicity compared with GMP4 -A (Pyrogenicity in rabbits; summary of Table 3, rabbits): less pyrogenicity than GMP4 -A
LD50 (Acute toxicity in mice; i.p., female ICR mice): > 600 mg/kg
LD50 (Acute toxicity in mice; i.p., male ICR mice): > 600 mg/kg
LD50 (Acute toxicity in mice; i.v., female ICR mice, probit method, 95% confidence limits in parenthesis): 266 (237-297) mg/kg
LD50 (Acute toxicity in mice; i.v., male ICR mice, probit method, 95% confidence limits in parenthesis): 292 (261-328*) mg/kg
LD50 (Acute toxicity in mice; p.o., female ICR mice): > 3000 mg/kg
LD50 (Acute toxicity in mice; p.o., male ICR mice): > 3000 mg/kg
LD50 (Acute toxicity in mice; s.c., female ICR mice): > 600 mg/kg
LD50 (Acute toxicity in mice; s.c., male ICR mice): > 600 mg/kg
(number of survivals)/(number of animals tested) [2, 3]: 9/16
percent survival [2, 3]: 56.3%
(number of survivals)/(number of animals tested) [2, 10]: 3/16
percent survival [2, 10]: 18.8%
(number of survivals)/(number of animals tested) [2, 4]: 13/16
percent survival [2, 4]: 81.3%
(number of survivals)/(number of animals tested) [2, 5]: 13/16
percent survival [2, 5]: 81.3%
(number of survivals)/(number of animals tested) [2, 6]: 15/16
percent survival [2, 6]: 93.8%
(number of survivals)/(number of animals tested) [2, 7]: 13/16
percent survival [2, 7]: 81.3%
